Assay results from patent US9481654B2, “Compositions and methods for inhibition of the JAK pathway” (Rigel Pharmaceuticals, Inc., priority 2006, dated 2016).

What was measured:
Type in all cases: cell-based
[1] = system: IFNγ induced ICAM-1 (CD54) up-regulation in U937 human monocytic cells (JAK/Stat pathway); test: U937 IFNγ ICAM1 FACS Assay; conditions: Table III Example 6; 10 ng/mL IFNγ, 18-24 hours
From the text: A549 lung epithelial cells and U937 cells up-regulate ICAM-1 (CD54) surface expression in response to a variety of different stimuli. Therefore, using ICAM-1 expression as readout, test compound effects on different signaling pathways can be assessed in the same cell type. Stimulation with IL-1β through the IL-1β receptor activates the TRAF6/NFκB pathway resulting in up-regulation of ICAM-1. IFNγ induces ICAM-1 up-regulation through activation of the JAK1/JAK2 pathway. The up-regulation of ICAM-1 can be quantified by flow cytometry across a compound dose curve and EC50 values are calculated. Exemplary assays of this type are described in greater detail in Examples 5 and 6. U937 human monocytic cells up-regulate ICAM-1 (CD54) surface expression in response to a variety of different stimuli. Therefore, using ICAM-1 expression as readout, compound effects on different signaling pathways can be assessed in the same cell type. IFNγ up-regulates ICAM-1 through activation of the JAK/Stat pathway. In this example, the up-regulation of ICAM-1 by IFNγ was assessed. […] The cells were then plated at a concentration of 100,000 cells per 160 μL in 96 well flat bottom plates. The test compounds were then diluted as follows: 10 mM test compound was diluted 1:5 in DMSO (3 μL 10 mM test compound in 12 μL DMSO), followed by a 1:3 serial dilution of test compound in DMSO (6 μL test compound serially diluted into 12 μL DMSO to give 3-fold dilutions). […] For control wells, 4 μL of DMSO was diluted into 76 μL 10% RPMI. […] The cells and compounds were then pre-incubated for 30 minutes at 37° C. with 5% CO2. […] The cells were kept under conditions for stimulation for 18-24 hours at 37° C. with 5% CO2. […] Cells were spun down at 1000 rpm for 5 minutes at 4° C., following which the supernatant was removed. […] The cells were then incubated on ice in the dark for 30 minutes. […] After suspension, the cells were centrifuged at 1000 rpm for 5 min at 4° C. […] Detection was performed using a BD LSR I System Flow Cytometer, purchased from BD Biosciences of San Jose, Calif. The live cells were gated for live scatter and the geometric mean of ICAM-APC was measured (Becton-Dickinson CellQuest software version 3.3, Franklin Lakes, N.J.). Both % live cells and ICAM-1 expression was analyzed. The assays for the test compounds were carried out in parallel with a control compound of known activity.

[2] = system: primary human T-cells (IL-2 induced proliferation, JAK-1/JAK-3, Stat-5); test: Primary Human T-Cell Proliferation Assay Stimulated with IL-2 (CellTiter-Glo); conditions: Table III Example 4
How it was run: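 Read-out is intracellular ATP luminescence (CellTiter-Glo) after 72 h at 37 °C of IL-2-driven growth. Cells, pre-stimulated via TCR and CD28 then washed free of IL-2, were resuspended in Yssel's medium, given 80 U/mL IL-2 in the cell suspension plus duplicate compound; unstimulated wells lacked IL-2.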

[3] = system: IL-4 stimulated CD23 upregulation in human Ramos B cells (JAK-1/JAK-3, Stat-6); test: Assay for Ramos B-Cell Line Stimulated with IL-4 (CD23 upregulation, FACS); conditions: Table III Example 3
How it was run: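 Flow cytometry of CD23 staining after 20-24 h IL-4 stimulation (50 units/mL final) of human Ramos B cells in RPMI with 5% serum. Cells, 5×10^4 per point, received compound or DMSO vehicle for 1 h at 37° C prior to stimulation.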

`Cc1ccc(Nc2ncc(F)c(Nc3ccc(CNS(=O)(=O)c4sc(N)nc4C)cc3)n2)cc1S(N)(=O)=O` [Compound I-43, N4-[4-(2-amino-4-methylthiazol-5-yl)sulfonylaminomethyl]phenyl-N2-(3-aminosulfonyl-4-methyl)phenyl-5-fluoro-2,4-pyrimidinediamine] showed an IC50 [1] of 37800 nM, an IC50 [2] of 1790 nM and an IC50 [3] of 537 nM.
For `Cc1cnc(Nc2ccc(S(N)(=O)=O)cc2)nc1Nc1ccc(CNS(=O)(=O)C2CC2)cc1` [Compound I-45, N2-(4-aminosulfonyl)phenyl-N4-(4-cyclopropylsulfonylaminomethyl)phenyl-5-methyl-2,4-pyrimidinediamine], the IC50 [1] was 284 nM, the IC50 [2] was 29.3 nM and the IC50 [3] was 59.8 nM.
`Cc1cnc(Nc2cccc(S(N)(=O)=O)c2)nc1Nc1ccc(CNS(=O)(=O)C2CC2)cc1` [Compound I-46, N2-(3-aminosulfonyl)phenyl-N4-(4-cyclopropylsulfonylaminomethyl)phenyl-5-methyl-2,4-pyrimidinediamine] gave an IC50 [1] of 188 nM, an IC50 [2] of 24.9 nM and an IC50 [3] of 26.8 nM.
`Cc1cnc(Nc2ccc(S(N)(=O)=O)cc2)nc1Nc1ccc(CCNS(=O)(=O)C2CC2)cc1` [Compound I-53, N2-(4-aminosulfonyl)phenyl-N4-[4-(2-cyclopropylsulfonylamino)ethyl]phenyl-5-methyl-2,4-pyrimidinediamine] gave an IC50 [1] of 604 nM, an IC50 [2] of 175 nM and an IC50 [3] of 131 nM.
`Cc1cnc(Nc2ccc(S(N)(=O)=O)cc2)nc1Nc1cccc(CNS(=O)(=O)C2CC2)c1` [Compound I-56, N2-(4-aminosulfonyl)phenyl-N4-(3-cyclopropylsulfonylaminomethyl)phenyl-5-methyl-2,4-pyrimidinediamine] gave an IC50 [1] of 726 nM, an IC50 [2] of 310 nM and an IC50 [3] of 162 nM.
For `CC(C)S(=O)(=O)NCc1ccc(Nc2nc(Nc3cccc(S(N)(=O)=O)c3)ncc2F)cc1` [Compound I-66, N2-(3-aminosulfonyl)phenyl-5-fluoro-N4-(4-isopropylsulfonylaminomethyl)phenyl-2,4-pyrimidinediamine], the IC50 [1] was 472 nM, the IC50 [2] was 65 nM and the IC50 [3] was 69.4 nM.
`CCS(=O)(=O)NCc1ccc(Nc2nc(Nc3cccc(S(N)(=O)=O)c3)ncc2F)cc1Cl` [Compound I-75, N2-(3-aminosulfonyl)phenyl-N4-(3-chloro-4-ethylsulfonylaminomethyl)phenyl-5-fluoro-2,4-pyrimidinediamine] gave an IC50 [1] of 1200 nM, an IC50 [2] of 246 nM and an IC50 [3] of 181 nM.
With `CCCN(Cc1ccc(Nc2nc(Nc3ccc(S(N)(=O)=O)cc3)ncc2C)cc1)S(=O)(=O)C1CC1` [Compound I-79, N2-(4-aminosulfonyl)phenyl-N4-[4-(N-cyclopropylsulfonyl-N-propylamino)methyl]phenyl-5-methyl-2,4-pyrimidinediamine] the IC50 [1] was 345 nM, the IC50 [2] was 92.3 nM and the IC50 [3] was 98 nM.
Compound `CCCN(Cc1ccc(Nc2nc(Nc3ccc(C)c(S(N)(=O)=O)c3)ncc2C)cc1)S(=O)(=O)C1CC1` [Compound I-81, N2-(3-aminosulfonyl-4-methyl)phenyl-N4-[4-(N-cyclopropylsulfonyl-N-propylamino)methyl]phenyl-5-methyl-2,4-pyrimidinediamine] has an IC50 [1] of 215 nM, an IC50 [2] of 89.2 nM and an IC50 [3] of 73.6 nM.
With `CCC(=O)NS(=O)(=O)c1ccc(Nc2ncc(C)c(Nc3ccc(CNS(=O)(=O)C4CC4)cc3)n2)cc1` [Compound I-83, N4-(4-cyclopropylsulfonylaminomethyl)phenyl-5-methyl-N2-(4-propionylaminosulfonyl)phenyl-2,4-pyrimidinediamine] the IC50 [1] was 266 nM, the IC50 [2] was 152 nM and the IC50 [3] was 181 nM.
With `Cc1ccc(Nc2ncc(F)c(Nc3ccc(CNS(=O)(=O)c4cccnc4)cc3)n2)cc1S(N)(=O)=O` [Compound I-90, N2-(3-aminosulfonyl-4-methyl)phenyl-5-fluoro-N4-[4-(pyrid-3-yl)sulfonylaminomethyl]phenyl-2,4-pyrimidinediamine] the IC50 [1] was 2430 nM, the IC50 [2] was 349 nM and the IC50 [3] was 152 nM.
`NS(=O)(=O)c1cccc(Nc2ncc(F)c(Nc3ccc(CNS(=O)(=O)c4cccnc4)cc3)n2)c1` [Compound I-95, N2-(3-aminosulfonyl)phenyl-5-fluoro-N4-[4-(pyrid-3-yl)sulfonylaminomethyl]phenyl-2,4-pyrimidinediamine] gave an IC50 [1] of 2690 nM, an IC50 [2] of 286 nM and an IC50 [3] of 160 nM.
`Cc1cnc(Nc2ccc(S(N)(=O)=O)cc2)nc1Nc1ccc(CNS(=O)(=O)CC(F)(F)F)cc1` [Compound I-96, N2-(4-aminosulfonyl)phenyl-5-methyl-N4-(4-trifluoroethylsulfonylaminomethyl)phenyl-2,4-pyrimidinediamine] showed an IC50 [1] of 3670 nM, an IC50 [2] of 105 nM and an IC50 [3] of 74.4 nM.
For `Cc1ccc(Nc2ncc(C)c(Nc3ccc(CNS(=O)(=O)CC(F)(F)F)cc3)n2)cc1S(N)(=O)=O` [Compound I-98, N2-(3-aminosulfonyl-4-methyl)phenyl-5-methyl-N4-(4-trifluoroethylsulfonylaminomethyl)phenyl-2,4-pyrimidinediamine], the IC50 [1] was 152 nM, the IC50 [2] was 52.1 nM and the IC50 [3] was 25.3 nM.
With `Cc1cnc(Nc2cccc(S(N)(=O)=O)c2)nc1Nc1ccc(CNS(=O)(=O)c2cccnc2)cc1` [Compound I-100, N2-(3-aminosulfonyl)phenyl-5-methyl-N4-[4-(pyrid-3-yl)sulfonylaminomethyl]phenyl-2,4-pyrimidinediamine] the IC50 [1] was 489 nM, the IC50 [2] was 153 nM and the IC50 [3] was 102 nM.
In the case of `Cc1ccc(Nc2ncc(C)c(Nc3ccc(CNS(=O)(=O)c4cccnc4)cc3)n2)cc1S(N)(=O)=O` [Compound I-101, N2-(3-aminosulfonyl-4-methyl)phenyl-5-methyl-N4-[4-(pyrid-3-yl)sulfonylaminomethyl]phenyl-2,4-pyrimidinediamine], the IC50 [1] is reported as 433 nM, the IC50 [2] is reported as 224 nM and the IC50 [3] is reported as 62.4 nM.
`Cc1ccc(Nc2ncc(C)c(Nc3cccc(CN(C)S(=O)(=O)C4CC4)c3)n2)cc1S(N)(=O)=O` [Compound I-122, N2-(3-aminosulfonyl-4-methyl)phenyl-N4-[3-(N-cyclopropylsulfonyl-N-methyl)aminomethyl]phenyl-5-methyl-2,4-pyrimidinediamine] showed an IC50 [1] of 155 nM, an IC50 [2] of 88.3 nM and an IC50 [3] of 81.6 nM.
`Cc1cnc(Nc2ccc(S(N)(=O)=O)cc2)nc1Nc1ccc(CN(C)S(=O)(=O)C2CC2)cc1` [Compound I-127, N2-(4-aminosulfonyl)phenyl-N4-[4-(N-cyclopropylsulfonyl-N-methyl)aminomethyl]phenyl-5-methyl-2,4-pyrimidinediamine] gave an IC50 [1] of 616 nM, an IC50 [2] of 233 nM and an IC50 [3] of 126 nM.
`CCOC(=NS(=O)(=O)c1cccc(Nc2ncc(C)c(Nc3cccc(CNS(=O)(=O)C4CC4)c3)n2)c1)OCC` [Compound I-128, N4-(3-cyclopropylsulfonylaminomethyl)phenyl-N2-[3-(diethoxy)carbonimidylsulfonyl]phenyl-5-methyl-2,4-pyrimidinediamine] showed an IC50 [1] of 707 nM, an IC50 [2] of 62.2 nM and an IC50 [3] of 157 nM.
Work on `Cc1cnc(Nc2ccc(S(N)(=O)=O)cc2)nc1Nc1ccc(CNS(=O)(=O)C2CC2)c(Cl)c1` [Compound I-129, N2-(4-aminosulfonyl)phenyl-N4-(3-chloro-4-cyclopropylsulfonylaminomethyl)phenyl-5-methyl-2,4-pyrimidinediamine] yielded an IC50 [1] of 2510 nM, an IC50 [2] of 432 nM and an IC50 [3] of 161 nM.
With `Cc1cnc(Nc2cccc(S(=O)(=O)Nc3ccccc3)c2)nc1Nc1ccc(CNS(=O)(=O)C2CC2)cc1` [Compound I-150, N4-(4-cyclopropylsulfonylaminomethyl)phenyl-5-methyl-N2-(3-phenylaminosulfonyl)phenyl-2,4-pyrimidinediamine] the IC50 [1] was 565 nM, the IC50 [2] was 127 nM and the IC50 [3] was 88.6 nM.
